Legend:
E. coli = assay: toxicity response in the microbial system; assay type: cell-based; conditions: system of the present invention; consistent with mammalian cell studies
Method: (§1) 2.0% cultures were grown from saturated overnight cultures at […] with shaking at 260 rpm for 3 hours. A 4.0% inoculum was mixed with […] top agar (10 g/L NaCl, 5.0 g/L yeast extract, 10 g/L tryptone, 7.0 g/L agar) and 10 ml was layered on 150 mm petri dishes containing LB and ampicillin. 10 μl of each drug to be tested was spotted onto the plate and incubated at 35° C. overnight. Colonies were screened when plated onto LB plates containing compounds that are known to activate oxidative stress genes, paraquat and hydrogen peroxide.
(§2) As the drug diffuses through the media, it created a concentration gradient.

acnA promoter probe = assay: stress probe-GFP fusion fluorescence after oxidative stress; assay type: cell-based, E. coli; conditions: varying concentrations of stressor, 4 hours post-stress
Source text: (§3) Using GenBank to obtain the genomic sequence for each of the oxidative stress response genes, PCR primers are designed to amplify the promoter region. Generally the target for amplification was approximately 300 base pairs and encompasses the sequence upstream from the native translational start site. […] The entire promoter region flanked by incorporated restriction sites was cloned in frame with GFP on a plasmid. The stress probes were then transformed into E. coli.
(§4) Cells containing each stress probe-GFP fusion were cultured to early log phase, stressed with varying concentrations of paraquat or H2O2, and the fluorescence intensity measured at 4 hours post-stress. Due to the lethality of the higher concentrations of stresses, dividing by optical density (OD) normalized the fluorescence intensity values.

dps promoter probe = assay: as above; assay type: cell-based, E. coli; conditions: varying concentrations of stressor, 4 hours post-stress
Source text: as §3, §4

sodA promoter probe = assay: as above; assay type: cell-based, E. coli; conditions: varying concentrations of stressor, 4 hours post-stress
Source text: as §3, §4

recA promoter probe = assay: as above; assay type: cell-based, E. coli; conditions: varying concentrations of stressor, 4 hours post-stress
Source text: as §3, §4

zwf promoter probe = assay: as above; assay type: cell-based, E. coli; conditions: varying concentrations of stressor, 4 hours post-stress
Source text: as §3, §4

[1] = test system: E. coli harboring the stress probes (soxS and sodA); assay: high throughput 96-well dose-response of stress probes; assay type: cell-based; conditions: for promoter probes turned on (mode of action): FIG. 5A and 5B
Method: 4. 0% cultures of E. coli harboring the stress probes were grown from a saturated overnight culture in 250 ml shake flasks containing 25 ml LB media and 100 μg/ml ampicillin at 35° C. with shaking at 260 rpm until the optical density reached 0.8 at 600 nm. 100 μl aliquots of culture were added to each well of a 96-well plate, along with 10 μl of various concentrations of the drug to be tested and incubated overnight. Experiments were run in duplicate. Fluorescence intensity and optical density measurements were taken using a Wallac 1420 VICTOR multilabel counter.
To test whether the procedure of Example 4 would work in a quantitative high throughput format, an experiment was conducted where the anti-tumor drug DNR was serially diluted and dose-response tested in a 96-well plate. For comparison, a similar experiment was conducted with paraquat.

[2] = test system: pCRA11, sodA promoter probe construct; assay: agar plate spotting, zone of induction (green halo); assay type: cell-based, E. coli; conditions: higher and varied concentrations of drugs spotted on plate, overnight
Method: as §1, §2

sodA-GFP stress probe = assay: rate of change of GFP signal; assay type: cell-based, E. coli; conditions: continuous stress by bolus of paraquat, FIG. 6
Source text: The rate of change of the GFP signal measures the rate of the stress protein induction. This experiment compares the response of the sodA promoter to stresses in the form of a bolus of paraquat in one culture and a transient exposure to hyperoxia in another. A control culture consisting of uninduced sodA:GFP was included for comparison. […] An uninduced culture was included for comparison purposes.
The disadvantages of GFP as a reporter gene are its lag time for fluorescence (approximately 90 minutes) and extraordinary stability. One way to compensate for these is to measure the rate of change of the GFP fluorescence, which is possible using an LED-based sensor that permits continuous in situ measurements. The cell specific rate of change of GFP normalized to optical density is then a measure of the rate of gene expression of the stress protein.

CC1=C(N2CC2)C(=O)C(C)=C(N2CC2)C1=O [MeDZQ, methyl diaziridinequinone]
rank order of toxicity response (E. coli): MeDZQ, DZQ, and AZQ, were ranked in decreasing order of toxicity response

OO [hydrogen peroxide]
fluorescence intensity normalized by optical density, acnA promoter probe (acnA promoter probe): no inducible response
fluorescence intensity normalized by optical density, dps promoter probe (dps promoter probe): dose dependent response
fluorescence intensity normalized by optical density, sodA promoter probe (sodA promoter probe): no inducible response
fluorescence intensity normalized by optical density, recA promoter probe (recA promoter probe): dose dependent response
fluorescence intensity normalized by optical density, zwf promoter probe (zwf promoter probe): no inducible response

O=C1C=C(N2CC2)C(=O)C=C1N1CC1 [DZQ]
rank order of toxicity response (E. coli): MeDZQ, DZQ, and AZQ, were ranked in decreasing order of toxicity response

COc1cccc2c1C(=O)c1c(O)c3c(c(O)c1C2=O)C[C@@](O)(C(C)=O)C[C@@H]3O[C@H]1C[C@H](N)[C@H](O)[C@H](C)O1 [DNR, daunorubicin]
promoter probes turned on (mode of action) ([1]; 96-well plate): turning on soxS and sodA
toxicity to cells beyond the concentration of maximal response ([1]; above 20 μM, 96-well plate): becomes toxic and kills cells
concentration at which maximal response is observed ([1]; serial dilution in 96-well plate, overnight, FIG. 5A): 20 µM

COc1cccc2c1C(=O)c1c(O)c3c(c(O)c1C2=O)C[C@@](O)(C(=O)CO)C[C@@H]3O[C@H]1C[C@H](N)[C@H](O)[C@H](C)O1 [Doxorubicin, doxorubicin]
induction of sodA promoter probe compared with induction of recA [2]: stronger induction of sodA than its induction of recA

C[n+]1ccc(-c2cc[n+](C)cc2)cc1 [paraquat]
promoter probes turned on (mode of action) ([1]; 96-well plate): turning on soxS and sodA
shape of dose response ([1]; serial dilution in 96-well plate, overnight, FIG. 5B): monotonically increasing response
rate of sodA expression (GFP derivative) (sodA-GFP stress probe): continual gene expression of sodA
fluorescence intensity normalized by optical density, acnA promoter probe (acnA promoter probe): dose dependent response
fluorescence intensity normalized by optical density, dps promoter probe (dps promoter probe): do not show a dose dependent response and are only inducible when exposed to higher paraquat concentrations
fluorescence intensity normalized by optical density, sodA promoter probe (sodA promoter probe): dose dependent response
fluorescence intensity normalized by optical density, recA promoter probe (recA promoter probe): do not show a dose dependent response and are only inducible when exposed to higher paraquat concentrations
fluorescence intensity normalized by optical density, zwf promoter probe (zwf promoter probe): dose dependent response

CCOC(=O)NC1=C(N2CC2)C(=O)C(NC(=O)OCC)=C(N2CC2)C1=O [AZQ, diaziquone]
rank order of toxicity response (E. coli): MeDZQ, DZQ, and AZQ, were ranked in decreasing order of toxicity response
